Measured values reported in patent US10100284B2, “Method for inducing differentiation of pluripotent stem cells into endodermal cells” (TOAGOSEI CO., LTD., priority 2013, dated 2018).
Where no end group is shown, it is not given here.

Key:
[1] = test system: iPS cells (clone name: 201B2 or 201B7); test: ALB ELISA of iPS cell culture supernatant; assay type: cell-based, human; details: peptide concentration in medium 6 μM; as culture time increased; FIG. 4
Procedure: (§1) The stem cell differentiation-inducing activity of the differentiation-inducing synthetic peptide (Sample 1) obtained in Example 1 was evaluated by quantifying changes over time in the expressed amounts (typically extracellular secretion) of AFP and ALB, which are proteins known as markers of differentiation into endodermal cells. It is known that AFP is expressed in cells that have differentiated into liver precursor cells among the endodermal cells, while ALB is expressed in cells that have differentiated sufficiently to function effectively as hepatocytes (that is, hepatocytes or hepatocyte-like cells). […]
50 μL of the accessory Chromogen Substrate Solution (coloring reagent) was then added per well, and left standing for 15 minutes in the dark. […] Absorbance A450 at 450 nm and absorbance A550 at 550 nm were then measured with a spectrophotometer in the reaction liquid in the wells.
(§2) Absorbance values A(450-550) were calculated by subtracting the absorbance A550 from the absorbance A450 obtained by the previous measurement (that is, absorbance A(450-550)=[…]) for each of the samples from the AFP evaluation test group and ALB evaluation test group. […]

[2] = test system: iPS cells (clone name: 201B2 or 201B7); test: AFP ELISA of iPS cell culture supernatant; assay type: cell-based, human; details: peptide concentration in medium 6 μM; as culture time increased; FIG. 4
Procedure: as §1
200 μL of a substrate solution obtained by mixing 1 volume each of the accessory coloring reagent (A) and coloring reagent (B) was added per well, and left standing for 30 minutes in the dark. […] Absorbance A450 at 450 nm and absorbance A550 at 550 nm were then measured with a spectrophotometer in the reaction liquid in the wells.
as §2

LLLLLLVGLTAPAGKKRTLRKNDRKKR-CONH2 (LLLLLLVGLTAPAGKKRTLRKNDRKKR-NH2) [Sample 1]
ALB level of the culture supernatant in comparison with peptide-free group with the same culture time [1]: increased dramatically | AFP level of the culture supernatant in comparison with peptide-free group with the same culture time [2]: increased dramatically
